For 50 molecules, inhibition results are on record in publication PMC12668310, “High‐Throughput Synthesis and Screening of a Cyanimide Library Identifies Selective Inhibitors of ISG15‐Specific Protease mUSP18” (Angewandte Chemie (International Ed. in English), 2025).

Read-outs that look alike come from different tables or passages of the source.

The target of the assay is T1, mUSP18 (Mus musculus, UniProt Q9WTV6).
T1 construct: (46-368); His-tag (N); made in house
T1 sequence (Q9WTV6 46-368): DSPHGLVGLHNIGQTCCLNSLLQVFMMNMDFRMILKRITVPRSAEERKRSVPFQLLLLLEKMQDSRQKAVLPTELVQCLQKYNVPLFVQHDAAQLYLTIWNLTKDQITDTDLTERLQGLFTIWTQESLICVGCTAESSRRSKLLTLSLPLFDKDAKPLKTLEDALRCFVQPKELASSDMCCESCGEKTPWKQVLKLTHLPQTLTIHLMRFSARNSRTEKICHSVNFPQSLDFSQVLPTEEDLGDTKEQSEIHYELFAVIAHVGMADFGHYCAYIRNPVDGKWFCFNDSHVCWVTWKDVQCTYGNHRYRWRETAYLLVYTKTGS
In words: High-throughput screening, ISG15ct-RhoMP, single dose 1.25 µM. Type of assay: biochemical, murine. Particulars: mUSP18 %inhibition.

Setting [1] is: carboxylic acid (CA) building block alone, read-out: %inh CA only.
Where [2] appears, read: carboxylic acid (CA) with coupling reagents DIC/HOBT, read-out: %inh CA + DIC/HOBT.

With `O=C(O)c1ccccc1OCc1ccncc1` [CA129], the inhibition at 1.25 µM was found to be 8.78% under setting [1] and 10.2% under setting [2].
The corresponding values for `COc1ccc(N2CCN(C(C)C(=O)O)CC2)cc1` (stereo not shown) [CA130] are 7.09% and 7.3%.
Turning to `Cc1cc(C)c(C(=O)O)c(OCC2CCCCC2)n1` [CA131], the inhibition at 1.25 µM under setting [1] was 9.41% and the inhibition at 1.25 µM under setting [2] turned out to be 31.3%.
Consider `O=C(O)c1ccc(S(=O)(=O)NC2CC2)cc1` [CA132], for which the inhibition at 1.25 µM reads like this: under setting [1], 7.6%; under setting [2], 4.16%.
The corresponding values for `O=C(O)c1cc(-c2ccc(Cl)cc2)oc1C(F)(F)F` [CA133] are 11% and 11.8%.
Turning to `O=C(O)c1cccc(S(=O)(=O)Nc2ccc(Cl)cc2)c1` [CA134], the inhibition at 1.25 µM under setting [1] came to 10% and the inhibition at 1.25 µM under setting [2] came to 11.6%.
Consider `O=C(O)c1ccn(-c2ncc(C(F)(F)F)cc2Cl)n1` [CA135], for which the inhibition at 1.25 µM runs as follows: under setting [1], 4.28%; under setting [2], 10.4%.
In the case of `O=C(O)Cc1coc(-c2ccccc2)n1` [CA136], the inhibition at 1.25 µM was determined as 8.08% under setting [1] and 12.8% under setting [2].
The corresponding values for `Cn1cc(NS(=O)(=O)c2ccsc2C(=O)O)cn1` [CA137] are 3.97% and 20.1%.
The corresponding values for `O=C(O)CC(NS(=O)(=O)c1ccccc1)c1ccc(Cl)cc1` (stereo not shown) [CA138] are 22.3% and 5.42%.
For `O=C(O)c1cccc(S(=O)(=O)NCC2CCCO2)c1` (stereo not shown) [CA139], in that order: 14.3% and -1.37%.
For `O=C(O)c1c[nH]nc1-c1cccnc1` [CA140], the inhibition at 1.25 µM by setting is: under setting [1], 9.15%; under setting [2], 7.35%.
For `O=C(O)Cc1ccc(NS(=O)(=O)c2c(Cl)cccc2Cl)cc1` [CA141], in that order: 9.99% and 2.69%.
The corresponding values for `O=C(O)c1csc(-c2cnccn2)n1` [CA142] are 8.67% and 6.39%.
Consider `O=C(O)c1cccc(S(=O)(=O)NC2CC2)c1` [CA143], for which the inhibition at 1.25 µM worked out at 5.82% under setting [1] and 3.07% under setting [2].
For `O=C(O)c1ccc(Oc2cccc(Cl)c2Cl)nn1` [CA144], in that order: 10.8% and 12.9%.
The corresponding values for `CC1CC1C(=O)N1CCCCC1C(=O)O` (stereo not shown) [CA145] are 4.43% and 1.71%.
For `O=C(O)c1ncoc1-c1ccco1` [CA146], in that order: 8.58% and 6.8%.
In the case of `COc1cc(C(=O)O)ccc1OCc1c(C)noc1C` [CA147], the inhibition at 1.25 µM under setting [1] came to 5.62% and the inhibition at 1.25 µM under setting [2] was found to be 3.45%.
For `O=C(O)c1cc(-c2ccc(Cl)s2)[nH]n1` [CA148], in that order: 7.78% and 9.65%.
The corresponding values for `O=C(O)Cc1ccc(S(=O)(=O)N2CCOCC2)s1` [CA149] are 9.87% and 8.05%.
`O=C(O)c1cc(OCc2ccccc2)ccn1` [CA150]: the inhibition at 1.25 µM was determined as 3.17% under setting [1] and 5.95% under setting [2].
Consider `CN(Cc1ccco1)c1ccccc1C(=O)O` [CA151], for which the inhibition at 1.25 µM under setting [1] was 3.28% and the inhibition at 1.25 µM under setting [2] is 7.61%.
`Cc1cccc(C(=O)N2CCCCC2C(=O)O)n1` (stereo not shown) [CA152]: the inhibition at 1.25 µM by setting is: under setting [1], 2.22%; under setting [2], 6.16%.
In the case of `Cc1nc(-c2c(C)c(C)nn(C)c2=O)sc1C(=O)O` [CA153], the inhibition at 1.25 µM came to 1.24% under setting [1] and 3.87% under setting [2].
For `O=C(O)c1cnc(COc2ccccc2)s1` [CA154], in that order: 0.13% and 5.09%.
In the case of `CC1=NN(c2ccc(C(=O)O)cc2)CC1` [CA155], the inhibition at 1.25 µM was 4.05% under setting [1] and 20.8% under setting [2].
For `Cc1oc(Cn2cc(Br)cn2)cc1C(=O)O` [CA156], in that order: 8.69% and 12.3%.
Turning to `Cn1cc(S(=O)(=O)NCc2ccco2)cc1C(=O)O` [CA157], the inhibition at 1.25 µM by setting is: under setting [1], 2.07%; under setting [2], 6.58%.
For `O=C(O)Cc1cccc(OCc2ccccn2)c1` [CA158], in that order: 1.44% and 6.76%.
As to `Cc1nc(-c2ncccn2)sc1C(=O)O` [CA159], the inhibition at 1.25 µM runs as follows: under setting [1], 2.85%; under setting [2], 8.46%.
For `O=C(O)c1cn(CCc2ccccc2)nn1` [CA160], in that order: 3.82% and 10.4%.
For `O=C(O)c1cn(CC(=O)N2CCCC2)nn1` [CA161], in that order: 2.32% and 14.5%.
Regarding `COc1ccccc1-c1nnc(CC(=O)O)o1` [CA162], the inhibition at 1.25 µM reads like this: under setting [1], 23.2%; under setting [2], 4.62%.
The corresponding values for `Cc1ccc(N(CCC(=O)O)S(=O)(=O)c2ccccc2)cc1` [CA163] are 18.6% and 0.52%.
For the molecule `Cn1nccc1[1C@@H]1OCCC[1C@H]1C(=O)O` [CA164], the inhibition at 1.25 µM is, setting by setting: under setting [1], 14.4%; under setting [2], -2.41%.
For `O=C(O)c1cc(-c2ccc(Br)cc2)ns1` [CA165], the inhibition at 1.25 µM reads like this: under setting [1], 16%; under setting [2], 9.48%.
For `Cn1ncc(C2CC2)c1C(=O)O` [CA166], in that order: 10.9% and -0.27%.
The corresponding values for `CCC1(Cn2cc(C(=O)O)nn2)COC1` [CA167] are 10.3% and 2.71%.
For `O=C(O)c1cc(-n2ccnn2)ccc1F` [CA168], in that order: 11.2% and -1.08%.
For `O=C(O)c1noc(-c2cccc(Cl)c2)n1` [CA169], the inhibition at 1.25 µM reads like this: under setting [1], 8.46%; under setting [2], 4.42%.
Regarding `Cc1nnnn1-c1cc(C(=O)O)cc(C(F)(F)F)c1` [CA171], the inhibition at 1.25 µM is, setting by setting: under setting [1], 9.55%; under setting [2], 3.27%.
For `CC1CCN(c2ncc(C(=O)O)s2)CC1` [CA172], in that order: 9.83% and 13.4%.
With `O=C(O)C1CCN(c2ccc(=O)[nH]n2)CC1` [CA173], the inhibition at 1.25 µM is, setting by setting: under setting [1], 8.54%; under setting [2], 5.44%.
In the case of `O=C(O)c1cnn(CC2CCCCO2)c1` (stereo not shown) [CA174], the inhibition at 1.25 µM by setting is: under setting [1], 2.59%; under setting [2], 8.37%.
In the case of `Cc1cc(C(=O)O)c(C2CC2)s1` [CA175], the inhibition at 1.25 µM is, setting by setting: under setting [1], 1.19%; under setting [2], 12.1%.
For `O=C(O)c1ccc(-n2ccnc2)nn1` [CA176], the inhibition at 1.25 µM reads like this: under setting [1], 15.3%; under setting [2], 5.42%.
Turning to `O=C(O)c1c(-c2ccccc2)noc1C(F)F` [CA177], the inhibition at 1.25 µM under setting [1] stood at 4.94% and the inhibition at 1.25 µM under setting [2] is 4.56%.
Turning to `O=C(O)C1(c2ccccc2Cl)CCOCC1` [CA178], the inhibition at 1.25 µM under setting [1] was determined as 4.04% and the inhibition at 1.25 µM under setting [2] was found to be 11.9%.
`Cc1noc(C)c1Cc1ccc(C(=O)O)o1` [CA179]: the inhibition at 1.25 µM is 2.24% under setting [1] and 4.32% under setting [2].
